{
  "source": "patent US6448229B2",
  "about": "“Gamma secretase inhibitors” (Merck Sharp & Dohme Ltd., priority 2000, dated 2002)",
  "system": "Notch signalling",
  "assay": "Xenopus developmental assay for Notch activity (tail bud formation)",
  "type": "in vivo, Xenopus laevis",
  "settings": "Xenopus embryos cultured with compound from stage 15 to stage 40",
  "method": "The following assay was used to determine the effect of compounds on Notch signalling.\nXenopus embryos were cultured in 1/10 NAM [Beck & Slack, Development, 126, 1611-1620, 1999] supplemented with protease inhibitors ([…] stock in DMSO) from stage 15 [P. D. Nieuwkoop and J. Faber, Normal table of Xenopus laevis, Daudin 1967, Reprinted Garland 1994] (24 hours), to stage 40 (3 days). Control siblings were incubated in 1/10 NAM containing 0.05% DMSO. At 3 days they were fixed in batches of 20 and measured using a graduated eyepiece on a Wild dissecting microscope set to 25×. Each tadpole was measured from head to proctodaeum (head and trunk) and from proctodaeum to tail tip (tail). Tail buds were extirpated at stage 30 and cultured for 24 hours as described previously [Tucker & Slack, Development, 121, 249-262, 1995]. Somites were detected by staining with monoclonal antibody 12/101 [Kintner & Brockes, Nature, 308, 67-69, 1984], as described elsewhere [Tucker & Slack, 1995]. In situ hybridisation for Xhox3 has been previously described [Beck & Slack, Mech. Dev., 72, 41-52, 1998].",
  "data": [
    {"molecule": "CC(NC(=O)Cc1cc(F)cc(F)c1)C(=O)NC(C(=O)NCC1CN(c2ccccc2)CCO1)c1ccccc1", "note": "(mixture of isomers) [Example 1, 2-[2-(3,5-Difluorophenyl)acetylamino]-N-{phenyl[(4-phenylmorpholin-2-ylmethyl)carbamoyl]methyl}propionamide]", "values": [
      {"measurement": "inhibition of tail bud formation", "value": "did not significantly inhibit tail bud formation"}
    ]}
  ]
}
